Assay results published in patent US20070088086A1, “Method of using synthetic L-Se-methylselenocysteine as a nutriceutical and a method of its synthesis” (PharmaSe, Incorporated, priority 1999, published 2007).

Legend:
[1] = In vitro lucigenin chemiluminescence (CL) assay of superoxide generation in the presence of GSH
Procedure: Methylseleninic acid (CH3SeOOH) was a dissolved in distilled water. Using a Rannin micropipette, aliquots were added directly to 1.0 ml of a buffered cocktail solution. The buffered cocktail solution was comprised of lucigenin (20 μg/ml), reduced glutathione (GSH) (4 mg/ml), and either sodium borate (0.05M) or sodium phosphate (0.05M), all purchased from Sigma Chemical Co. Two different buffered cocktail solutions were employed: the cocktail containing sodium borate was used for experiments at pH 9.2, which is optimum for the generation, detection and quenching of selenium catalyzed superoxide; and the cocktail containing sodium phosphate was used for experiments at pH 7.4, which is reflective of physiological conditions. One ml of the cocktail solution was added to a 10×50 mm polypropylene tube for use in the chemiluminescence (CL) assay. Chemiluminescence, using lucigenin as the detector of superoxide, was counted in repetitive integrated 30 second increments over time using a Los Alamos Diagnostics (Model 535) chemiluminometer, to which was attached a LKB Model 2209 circulating water bath that held the tube at 36° C. All chemical test assays and controls were performed by the addition of methylseleninic acid directly to the luminometer test tube in the counting chamber. Superoxide dismutase, SOD, purchased from Sigma Chemical Co., was added to the test tube prior to the addition of the methylseleninic acid and used to quench the chemiluminescent reactions.
The complete chemiluminescence cocktail (containing buffer, lucigenin and GSH) produced very low, yet detectable amounts of background chemiluminescence at both a pH of 9.2 and 7.4. This was most likely due to the ambient spontaneous oxidation of GSH, but was not significant to the tests performed. […] Thus the chemiluminescence produced and quantitated in these assays can be attributable to the generation of superoxide. […] The chemiluminescence generated by selenoate catalysis may be used to quantitatively approximate the amount of catalytic selenium present.

[2] = Solubility of the obtained amino acid in solvents; format: physicochemical
Source text: It is contemplated that ion exchange chromatography may be used to purify the amino acid. It is also possible that, on a larger scale, L-Se-methylselenocysteine may be crystallized. […] Accordingly, ethanol may be one likely crystallization solvent.

[3] = Acute toxicity in a mouse (FIG. 3); settings: in vivo
Procedure: FIG. 3 is a graphic comparison showing the acute toxicity of L-Se-methylselenocysteine in a mouse versus the acute toxicity of selenomethionine in rats.
(§1) FIG. 1 illustrates a comparison between L-Se-methylselenocysteine and L-selenomethionine, and their effect on the growth of normal rabbit fibroblasts. Tests were performed at varying concentrations of L-Se-methylselenocysteine and L-selenomethionine over a three-day period. The amount of cellular growth, as measured by DNA synthesis, that could be stimulated by calf serum at the end of this period was assessed by the addition of tritiated thymidine.

human cancer cells = assay: Toxicity to cancer cells, same protocol as normal cells (FIG. 2); format: cell-based; settings: compared with selenomethionine
Procedure: FIG. 2 is a graphic comparison showing that L-Se-methylselenocysteine is more toxic to human cancer cells than L-selenomethionine.
as §1

[4] = test system: normal rabbit fibroblasts; assay: Growth of normal rabbit fibroblasts, DNA synthesis by tritiated thymidine (FIG. 1); format: cell-based; settings: three-day period, compared with selenomethionine
Procedure: FIG. 1 is a graphic comparison between L-Se-methylselenocysteine and L-selenomethionine and their effect on the growth of normal rabbit fibroblasts.
as §1

[5] = test system: pre-neoplastic and tumor cell lines; settings: cited from earlier work
mammary tumors = settings: 1 and 2 ppm in rats' diets; cited from earlier work
cells in culture = settings: cited from earlier work
[6] = selenol or thiol group; cited from earlier work
[7] = test system: lung, cholorectal and prostate cancer; settings: dietary supplement up to 200 μg/Se/day more than that found in foods; cited from earlier work
rats = settings: acute toxicity, reported (Spallholz, 1994); cited from earlier work
colon carcinogenisis = settings: dietary 1.0-2.0 ppm; cited from earlier work

For `C[Se]C[C@H](N)C(=O)O` [L-Se-methylselenocysteine], the “superoxide generation / chemiluminescence in the in vitro CL assay” value ([1]; pH not stated) was “do not generate superoxide”, the solubility ([2]; in ethanol) was “sparingly soluble” and the solubility ([2]; in methanol) was “fairly soluble”. For the same compound, the solubility ([2]; in water) was “soluble”, the LD50 [3] was 8 mg/kg and the “toxicity to cancer cells” value (human cancer cells) was “more toxic to cancer cells”. For the same compound, the “toxicity to normal cells (growth, DNA synthesis)” value [4] was “less toxic to normal cells”.
In the case of `C[Se]C[C@H](N)C(=O)O` (racemic) [Se-methylselenocysteine], the “anticancer effects (cell morphology, cell number, DNA strand breaks)” value [5] is given as “beneficial anticancer effects” and the “appearance of palpable mammary tumors” value (mammary tumors) is given as “decreases the appearance of palpable mammary tumors”.
In the case of `CS` [methylthiol], the “quenching of chemiluminescence by SOD” value ([1]; pH not stated) is reported as “SOD did not significantly quench the chemiluminescence” and the “superoxide generation / chemiluminescence in the in vitro CL assay” value ([1]; pH not stated) is reported as “only a fraction of the amount of chemiluminescence as compared to methylselenol”.
For `O=[Se](O)O` [selenite], the induction of apoptosis (cells in culture) is listed as “induces DNA ladders and apoptosis”.
For `N[C@@H](C[SeH])C(=O)O` [selenocysteine], the pKa [6] is given as 5.25.
For `C[SeH]` [methylselenol], the “superoxide generation / chemiluminescence in the in vitro CL assay” value ([1]; pH not stated) was “very active redox compound producing superoxide”.
For `C[Se]CC[C@H](N)C(=O)O` [L-selenomethionine], the “superoxide generation / chemiluminescence in the in vitro CL assay” value ([1]; pH not stated) is given as “do not generate superoxide”, the “cancer incidence in humans” value [7] is given as “reduce the incidence of lung, cholorectal and prostate cancer” and the LD50 (rats) is given as 4.25 mg/kg. For the same compound, the “effect on the promotional stages of rat colon carcinogenisis” value (colon carcinogenisis) was “inhibitory effect”.
In the case of `C[Se](=O)O` [methylseleninic acid, Methylseleninic acid], the “lowest level at which chemiluminescence (superoxide generation) could be detected” value ([1]; FIG. 4, GSH reduction) is reported as 0.56 nanomoles of selenium, the “quenching of chemiluminescence by SOD” value ([1]; pH 7.4, 100 units of SOD) is reported as “quenched most of the chemiluminescence activity” and the chemiluminescence ([1]; pH 7.4, complete cocktail with GSH and lucigenin) is reported as “produced chemiluminescence”. The “quenching of chemiluminescence by SOD” value ([1]; pH 9.2, 100 units of SOD added prior) was “quenched an initial burst of chemiluminescence activity”, the “superoxide generation (chemiluminescence)” value ([1]; pH 9.2, complete cocktail with GSH and lucigenin) was “generated superoxide” and the “chemiluminescence with lucigenin alone” value ([1]; without GSH, pH 9.2 and 7.4) was “produced no additional chemiluminescence”. For the same compound, the “chemiluminescence with GSH alone” value ([1]; without lucigenin, pH 9.2 and 7.4) was “produced no additional chemiluminescence”.
For `N[C@@H](CS)C(=O)O` [cysteine], the pKa [6] is given as 8-9.
